Source: ChEMBL document CHEMBL3425467, “Synthesis, cytotoxicity and haemolytic activity of Pulsatilla saponin A, D derivatives” (Bioorg Med Chem Lett, 2015)

Experiments:
[1] = Cytotoxicity against human HL7702 cells assessed as inhibition of cell growth after 24 hrs by MTT assay; format: cell-based; conditions: L02, 24 h
A549 = assay: Cytotoxicity against human A549 cells assessed as inhibition of cell growth after 24 hrs by MTT assay; format: functional, cell-based; conditions: A549, 24 h
SMMC-7721 = assay: Cytotoxicity against human SMMC7721 cells assessed as inhibition of cell growth after 24 hrs by MTT assay; format: functional, cell-based; conditions: SMMC-7721, 24 h
[2] = Hemolytic activity in rabbit RBC assessed as induction of hemolysis; format: cell-based, Oryctolagus cuniculus, Erythrocyte; conditions: red blood cells, read-out: HD50 (the source's name)
[3] = Cytotoxicity against human Bel7402 cells assessed as inhibition of cell growth after 24 hrs by MTT assay; format: functional, cell-based; conditions: Bel-7402, 24 h
[4] = Ratio of hemolytic HD50 for PSA to hemolytic HD50 for compound in rabbit RBC; format: ADME, cell-based, Oryctolagus cuniculus; conditions: erythrocyte
Mus musculus [5] = assay: Toxicity in mouse assessed as death time at 0.1 mL/10 g, iv; format: organism-based; conditions: in vivo
Mus musculus [6] = assay: Toxicity in mouse assessed as induction of hematuria at 0.1 mL/10 g, iv; format: organism-based; conditions: in vivo
[7] = Toxicity in iv dosed mouse assessed as tolerance dose; format: organism-based; conditions: in vivo
Mus musculus [8] = assay: Toxicity in mouse assessed as induction of induction of death at 0.1 mL/10 g, iv; format: organism-based; conditions: in vivo

SMILES | IC50 [1] | IC50 (A549) | IC50 (SMMC-7721) | HC50 [2] | IC50 [3] | Ratio [4] | Time (Mus musculus [5]) | Activity (Mus musculus [6]) | MTD [7] | Activity (Mus musculus [8])
COC(=O)CCN1CCN(C(=O)[C@]23CCC(C)(C)C[C@H]2C2=CC[C@@H]4[C@@]5(C)CC[C@H](O[C@@H]6OC[C@H](O)[C@H](O)[C@H]6O[C@@H]6O[C@@H](C)[C@H](O)[C@@H](O)[C@H]6O)[C@@](C)(CO)[C@@H]5CC[C@@]4(C)[C@]2(C)CC3)CC1 | 61.7 µM | 14 µM | 38.3 µM | 57.7 µM | 53.2 µM | – | – | – | – | –
C[C@@H]1O[C@@H](O[C@H]2[C@H](O[C@H]3CC[C@@]4(C)[C@@H](CC[C@]5(C)[C@@H]4CC=C4[C@@H]6CC(C)(C)CC[C@]6(C(=O)N[C@H](CO)C(=O)O)CC[C@]45C)[C@]3(C)CO)OC[C@H](O)[C@@H]2O)[C@H](O)[C@H](O)[C@H]1O | 25.6 µM | 32.5 µM | 26.6 µM | 8.3 µM | 22.3 µM | – | – | – | – | –
C[C@@H]1O[C@@H](O[C@H]2[C@H](O[C@H]3CC[C@@]4(C)[C@@H](CC[C@]5(C)[C@@H]4CC=C4[C@@H]6CC(C)(C)CC[C@]6(C(=O)Nc6ccc(C(=O)O)cc6)CC[C@]45C)[C@]3(C)CO)OC[C@H](O)[C@@H]2O)[C@H](O)[C@H](O)[C@H]1O | 0.7 µM | 1.1 µM | > 100 µM | 356 µM | 4.2 µM | 20 | – | – | – | –
C[C@@H]1O[C@@H](O[C@H]2[C@H](O[C@H]3CC[C@@]4(C)[C@@H](CC[C@]5(C)[C@@H]4CC=C4[C@@H]6CC(C)(C)CC[C@]6(C(=O)Nc6ccccc6O)CC[C@]45C)[C@]3(C)CO)OC[C@H](O)[C@@H]2O)[C@H](O)[C@H](O)[C@H]1O | 85.5 µM | > 100 µM | 1.3 µM | 58.2 µM | > 100 µM | – | – | – | – | –
COC(=O)[C@H]1CCCN1C(=O)[C@]12CCC(C)(C)C[C@H]1C1=CC[C@@H]3[C@@]4(C)CC[C@H](O[C@@H]5OC[C@H](O)[C@H](O)[C@H]5O[C@@H]5O[C@@H](C)[C@H](O)[C@@H](O)[C@H]5O)[C@@](C)(CO)[C@@H]4CC[C@@]3(C)[C@]1(C)CC2 | 36.6 µM | 43.2 µM | 36 µM | 494 µM | 59.6 µM | 20 | – | – | – | –
C[C@@H]1O[C@@H](O[C@H]2[C@H](O[C@H]3CC[C@@]4(C)[C@@H](CC[C@]5(C)[C@@H]4CC=C4[C@@H]6CC(C)(C)CC[C@]6(C(=O)[O-])CC[C@]45C)[C@]3(C)CO)OC[C@H](O)[C@@H]2O)[C@H](O)[C@H](O)[C@H]1O.[Na+] | – | – | – | – | – | – | < 60 min | Toxic | 10 mg/kg | Toxic
CCN(CC)CCNC(=O)[C@]12CCC(C)(C)C[C@H]1C1=CC[C@@H]3[C@@]4(C)CC[C@H](O[C@@H]5OC[C@H](O)[C@H](O)[C@H]5O[C@@H]5O[C@@H](C)[C@H](O)[C@@H](O)[C@H]5O)[C@@](C)(CO)[C@@H]4CC[C@@]3(C)[C@]1(C)CC2 | 40.6 µM | 65.3 µM | 48 µM | 75.3 µM | > 100 µM | – | – | – | – | –
CC(=O)OCOC(=O)[C@]12CCC(C)(C)C[C@H]1C1=CC[C@@H]3[C@@]4(C)CC[C@H](O[C@@H]5OC[C@H](O)[C@H](O)[C@H]5O[C@@H]5O[C@@H](C)[C@H](O)[C@@H](O)[C@H]5O)[C@@](C)(CO)[C@@H]4CC[C@@]3(C)[C@]1(C)CC2 | 20.5 µM | 21.3 µM | 13.2 µM | 3.6 µM | 33.8 µM | – | – | – | – | –
C[C@@H]1O[C@@H](O[C@H]2[C@H](O[C@H]3CC[C@@]4(C)[C@@H](CC[C@]5(C)[C@@H]4CC=C4[C@@H]6CC(C)(C)CC[C@]6(C(=O)NCC(=O)[O-])CC[C@]45C)[C@]3(C)CO)OC[C@H](O[C@@H]3O[C@H](CO)[C@@H](O)[C@H](O)[C@H]3O)[C@@H]2O)[C@H](O)[C@H](O)[C@H]1O.[Na+] | – | – | – | – | – | – | > 20200 min | Non-toxic | > 160 mg/kg | Non-toxic
C[C@@H]1O[C@@H](O[C@H]2[C@H](O[C@H]3CC[C@@]4(C)[C@@H](CC[C@]5(C)[C@@H]4CC=C4[C@@H]6CC(C)(C)CC[C@]6(C(=O)N6CCC[C@@H]6C(=O)O)CC[C@]45C)[C@]3(C)CO)OC[C@H](O)[C@@H]2O)[C@H](O)[C@H](O)[C@H]1O | 53.7 µM | 61.6 µM | 41.4 µM | 22.9 µM | 64 µM | – | – | – | – | –
C[C@@H]1O[C@@H](O[C@H]2[C@H](O[C@H]3CC[C@@]4(C)[C@@H](CC[C@]5(C)[C@@H]4CC=C4[C@@H]6CC(C)(C)CC[C@]6(C(=O)NCC(=O)O)CC[C@]45C)[C@]3(C)CO)OC[C@H](O)[C@@H]2O)[C@H](O)[C@H](O)[C@H]1O | > 100 µM | 1 µM | 3.2 µM | > 500 µM | 0.9 µM | 20 | – | – | – | –
